target: SARS-CoV-2 Papain like protease (PLpro) (Severe acute respiratory syndrome coronavirus 2 (2019-nCoV) (SARS-CoV-2), UniProt P0DTD1); assay: Papain Like Protease (PLpro) biochemical assay with profluorogenic substrate Z-RLRGG-AMC; settings: SARS-CoV-2 PLpro 6.25 nM, 25 μM Z-RLRGG-AMC substrate, 60 minute reaction; read-out: IC50

SMILES | IC50 [nM]
Cc1cc(COCc2cscn2)ccc1C(=O)NC1(c2cc(-c3cnn(CCC(=O)N(C)C)c3)nc3ccccc23)CC1 [Example 362] | < 1
Cc1cc(COCc2cscn2)ccc1C(=O)NC1(c2cc(-c3cnn(C(C)(C)C(=O)N(C)C)c3)nc3ccccc23)CC1 [Example 363] | < 1
CCN(C)C(=O)Cn1cc(-c2cc(C3(NC(=O)c4ccc(COCc5cscn5)cc4C)CC3)c3ccccc3n2)cn1 [Example 364] | < 1
Cc1cc(COCc2ccccn2)ccc1C(=O)NC1(c2cc(-c3cnn(CC(=O)N(C)C)c3)nc3ccccc23)CC1 [Example 366, N-(1-(2-(1-(2-(dimethylamino)-2-oxoethyl)-1H-pyrazol-4-yl)quinolin-4-yl)cyclopropyl)-2-methyl-4-((pyridin-2-ylmethoxy)methyl)benzamide] | < 1
